In experiment [1] the target is T1, Na^+,K^+ -ATPase (Homo sapiens, UniProt P05023).
T1 construct: Na^+,K^+ -ATPase receptor purified according to Jorghensen; from tissue
Briefly: displacement of the specific 3H-ouabain binding from the purified Na+,K+-ATPase receptor. The source says:
(§1) To test the affinity for the receptor site of the Na^+,K^+ -ATPase and the inhibitory activity on the enzyme, the following tests were used: a) displacement of the specific ^3 H-ouabain binding from the Na^+,K^+ -ATPase receptor purified according to Jorghensen (Jorghensen P., BBA, 1974, 356, 36) and Erdmann (Erdmann E. et at., Arzneim.Forsh., 1984, 34, 1314): b) inhibition of the activity of the purified Na^+,K^+ -ATPase measured as % of hydrolysis of ^32 P-ATP in presence and in absence of the tested compound (Doucet A. et at., Am.

The target in experiment [2] is T1, Na^+,K^+ -ATPase. Briefly: inhibition of the activity of the purified Na+,K+-ATPase measured as % of hydrolysis of 32P-ATP. It is filed as biochemical.
Text: as §1

Experiment [3] has as its system spontaneous hypertensive rats (MHS). Nature of the experiment: blood pressure lowering in spontaneous hypertensive MHS rats (indirect tail-cuff, oral, ten days). The conditions noted are these: n = 7, 20 mg/Kg/os daily in METHOCEL 0.5% w/v; for SBP (systolic blood pressure): controls 172 +/- 2.0; for HR (heart rate): controls 328 +/- 8.6. It is filed as in vivo, rat (Milan hypertensive strain. The source says:
To test the affinity for the receptor site of the Na^+,K^+ -ATPase and the inhibitory activity on the enzyme, the following tests were used: a) displacement of the specific ^3 H-ouabain binding from the Na^+,K^+ -ATPase receptor purified according to Jorghensen (Jorghensen P., BBA, 1974, 356, 36) and Erdmann (Erdmann E. et at., Arzneim.Forsh., 1984, 34, 1314): b) inhibition of the activity of the purified Na^+,K^+ -ATPase measured as % of hydrolysis of ^32 P-ATP in presence and in absence of the tested compound (Doucet A. et at., Am. […] The ability of these compounds to lower blood pressure was tested by using animal models with genetic arterial hypertension, in particular, spontaneous hypertensive rats of the Milan (MHS) (Bianchi G., Ferrari P., Barber B. The Milan Hypertensive strain. In Handbook of hypertension. Vol.4: Experimental and genetic models of hypertension. Ed. W. de jong-Elsevier Science Publishers B.V., 1984: 328-349).
The procedure adopted to test the antihypertensive activity of the compounds on the above mentioned model was the following: systolic blood pressure (SBP) and heart rate (HR) were measured by an indirect tail-cuff method in three-month old hypertensive rats (MHS) before beginning the treatment (basal values). The rats were then subdivided in two groups of at least 7 animals each, one receiving the compound the other, the control group, receiving only the vehicle. The compound, suspended in METHOCEL 0.5% (w/v), was administered daily by mouth, for ten days. SBP and HR were measured daily 6 and 24 hours after the treatment. At the end of the ten day treatment period, a washout period of at least two days was carried out, in order to check for how long the SBP was mantained low or the basal values were re-established.

The conditions of experiment [4]: literature statement; cited from earlier work.
[5] abbreviates: 3H-ouabain displacement, purified Na+,K+-ATPase, read-out: Binding ^3 H-Ouab. Displacement log IC50 (converted).
Setting [6] is: purified Na+,K+-ATPase, 32P-ATP hydrolysis, read-out: Inhibitory Activity log IC50 (converted).

The term IC50 denotes the point on the concentration scale where inhibition reaches its midpoint.

`C[C@]12C=C[C@H](O)C[C@@H]1CC[C@@H]1[C@@H]2CC[C@]2(C)[C@@](O)(c3ccoc3)CC[C@]12O` [Comp. I - ab, 17β-(3-Furyl)-5α-androst-1-ene-3β,14β, 17α-triol]: the IC50 at Na^+,K^+ -ATPase [1] (setting [5]) is 3.98 µM; at Na^+,K^+ -ATPase [2] (setting [6]), 31.6 µM.
Taken in the same sequence, the figures for `C[C@]12CC[C@H]3[C@@H](CCC4=C[C@@H](O)CC[C@@]43C)[C@@]1(O)CC[C@]2(O)c1ccccc1` [Comp. I - ac, 17β-Phenylandrost-4-ene-3β,14β,17α-triol] were 6.31 µM and 79.4 µM.
For `C[C@]12CC[C@H]3[C@@H](CCC4=C[C@@H](OCCCN)CC[C@@]43C)[C@@]1(O)CC[C@]2(O)c1ccccc1` [Comp. I - ae, 3β-(3-Aminopropoxy)-17β-phenylandrost-4-ene-14β,17α-diol], in experiment [3], the “SBP (systolic blood pressure)” value is on record as 157 +/- 3.7 mm Hg and the “HR (heart rate)” value is 312 +/- 9.4 beats/min.
Take `C[C@]12CC[C@H]3[C@@H](CCC4=C[C@@H](O)CC[C@@]43C)[C@@]1(O)CC[C@]2(O)c1ccoc1` [Comp. I - ah, 17β-(3-Furyl)androst-4-ene-3β,14β,17α-triol]: the IC50 at Na^+,K^+ -ATPase [1] (setting [5]) was 3.16 µM. Moreover, the IC50 at Na^+,K^+ -ATPase [2] (setting [6]) was 50.1 µM. In experiment [3], the “SBP (systolic blood pressure)” value is listed as 154 +/- 4.1 mm Hg and the “HR (heart rate)” value is 315 +/- 10.1 beats/min.
As to `C[C@]12CC[C@H]3[C@@H](CCC4=C[C@@H](OCCO)CC[C@@]43C)[C@@]1(O)CC[C@]2(O)c1ccoc1` [Comp. I - ai, 3β-(2-Hydroxyethoxy)-17β-(3-furyl)androst-4-ene-14β,17α-diol], the IC50 at Na^+,K^+ -ATPase [1] (setting [5]) is 5.01 µM; at Na^+,K^+ -ATPase [2] (setting [6]), 39.8 µM.
As for `C[C@]12CC[C@H]3[C@@H](CCC4=C[C@@H](OCCCN)CC[C@@]43C)[C@@]1(O)CC[C@]2(O)c1ccoc1` [Comp. I - aj, 3β-(3-Aminopropoxy)-17β-(3-furyl)androst-4-ene-14β,17α-diol], the IC50 at Na^+,K^+ -ATPase [1] (setting [5]) was 1 µM. The IC50 at Na^+,K^+ -ATPase [2] (setting [6]) is 12.6 µM. Also, in experiment [3], the “SBP (systolic blood pressure)” value is 150 +/- 3.9 mm Hg and the “HR (heart rate)” value is 310 +/- 9.0 beats/min.
With `C[C@]12CC[C@H]3[C@@H](CC=C4C[C@@H](O)CC[C@@]43C)[C@@]1(O)CC[C@]2(O)c1ccccc1` [Comp. I - ap, 17β-Phenylandrost-5-ene-3β,14β,17α-triol], the IC50 was 7.94 µM on Na^+,K^+ -ATPase [1] (setting [5]) and 100 µM at Na^+,K^+ -ATPase [2] (setting [6]).
Taken in the same sequence, the figures for `C[C@]12CC[C@H]3[C@@H](C=CC4=C[C@@H](O)CC[C@@]43C)[C@@]1(O)CC[C@]2(O)c1ccccc1` [Comp. I - au, 17β-Phenylandrosta-4,6-diene-3β,14β,17α-triol] were 5.01 µM and 31.6 µM.
Taken in the same sequence, the figures for `C[C@]12CC[C@H](O)C[C@@H]1CC[C@@H]1[C@@H]2CC[C@]2(C)[C@@](O)(c3ccccc3)CC[C@]12O` [Comp. I - ay, 17β-Phenyl-5α-androstane-3β,14β,17α-triol] were 5.01 µM and 79.4 µM.
Taken in the same sequence, the figures for `COc1ccc([C@@]2(O)CC[C@]3(O)[C@@H]4CCC5=C[C@@H](O)CC[C@]5(C)[C@H]4CC[C@]23C)cc1` [Comp. I - bi, 17β-(4-Methoxyphenyl)androst-4-ene-3β,14β,17α-triol] were 3.16 µM and 39.8 µM.
For `C[C@]12CC[C@H]3[C@@H](CC=C4C[C@@H](O)CC[C@@]43C)[C@@]1(O)CC[C@]2(O)c1ccc(Cl)cc1` [Comp. I - bj, 17β-(4-Chlorophenyl)androst-5-ene-3β,14β,17α-triol], the IC50 was 5.01 µM on Na^+,K^+ -ATPase [1] (setting [5]) and 100 µM on Na^+,K^+ -ATPase [2] (setting [6]).
Taken in the same sequence, the figures for `C[C@]12CC[C@H](O)C[C@@H]1CC[C@@H]1[C@@H]2CC[C@]2(C)[C@@](O)(c3ccsc3)CC[C@]12O` [Comp. I - bk, 17β-(3-Thienyl)-5α-androstane-3β,14β,17α-triol] were 7.94 µM and 63.1 µM.
Turning to `C[C@]12CC[C@H](O)C[C@@H]1CC[C@@H]1[C@@H]2CC[C@]2(C)[C@@](O)(c3cccnc3)CC[C@]12O` [Comp. I - bl, 17β-(3-Pyridyl)-5α-androstane-3β,14β,17α-triol], the IC50 at Na^+,K^+ -ATPase [1] (setting [5]) is 5.01 µM. The IC50 at Na^+,K^+ -ATPase [2] (setting [6]) is 63.1 µM. Moreover, in experiment [3], the “SBP (systolic blood pressure)” value is 156 +/- 3.5 mm Hg and the “HR (heart rate)” value is 318 +/- 9.5 beats/min.
For `C[C@]12CC[C@H]3[C@@H](CC=C4C[C@@H](O)CC[C@@]43C)[C@@]1(O)CC[C@]2(O)c1nccs1` [Comp. I - bn, 17β-(2-Thiazolyl)androst-5-ene-3β,14β,17α-triol], the 50% inhibitory concentration (IC50) on Na^+,K^+ -ATPase [1] (setting [5]) was 7.94 µM; at Na^+,K^+ -ATPase [2] (setting [6]), 63.1 µM.
Taken in the same sequence, the figures for `CN(C)c1ccc([C@@]2(O)CC[C@]3(O)[C@@H]4CC=C5C[C@@H](O)CC[C@]5(C)[C@H]4CC[C@]23C)cc1` [Comp. I - bp, 17β-(4-(N,N-Dimethylaminophenyl))androst-5-ene-3β,14β,17α-triol] were 6.31 µM and 50.1 µM.
For the molecule `C[C@]12CC[C@H]3[C@@H](CC=C4C[C@@H](O)CC[C@@]43C)[C@@]1(O)CC[C@]2(O)c1ccco1` [Comp. I - bq, 17β-(2-Furyl)androst-5-ene-3β,14β,17α-triol], the IC50 on Na^+,K^+ -ATPase [1] (setting [5]) was 5.01 µM; at Na^+,K^+ -ATPase [2] (setting [6]) it was 79.4 µM.
Taken in the same sequence, the figures for `C[C@]12CC[C@H]3[C@@H](CCC4=C[C@@H](OCCN5CCCC5)CC[C@@]43C)[C@@]1(O)CC[C@]2(O)c1ccoc1` [Comp. I - br, 3β-(2-(1-Prrolidinyl)ethoxy)-17β-(3-furyl)androst-4-ene-14β,17α-diol] were 1.58 µM and 25.1 µM.
Taken in the same sequence, the figures for `CNCCO[C@@H]1C=C2CC[C@@H]3[C@H](CC[C@]4(C)[C@@](O)(c5ccoc5)CC[C@]34O)[C@@]2(C)CC1` [Comp. I - bt, 3β-(2-Methylaminoethoxy)-17β-(3-furyl)androst-4-ene-14β,17α-diol] were 3.16 µM and 50.1 µM.
Taken in the same sequence, the figures for `C[C@]12CC[C@H]3[C@@H](CCC4=C[C@@H](OCCCNC(=N)N)CC[C@@]43C)[C@@]1(O)CC[C@]2(O)c1ccoc1` [Comp. I - bu] were 3.16 µM and 63.1 µM.
For the molecule `C[C@]12CC[C@H]3[C@@H](CCC4=C[C@@H](OCC(O)CO)CC[C@@]43C)[C@@]1(O)CC[C@]2(O)c1ccoc1` (stereo partly drawn) [Comp. I - bv, 3β-((2RS)-2,3-Dihydroxypropoxy)-17β-(3-furyl)androst-4-ene-14β,17α-diol], the half-inhibitory concentration (IC50) is 3.98 µM on Na^+,K^+ -ATPase [1] (setting [5]) and 79.4 µM at Na^+,K^+ -ATPase [2] (setting [6]).
Taken in the same sequence, the figures for `C[C@]12CC[C@H]3[C@@H](CCC4=C[C@@H](OCC(N)CN)CC[C@@]43C)[C@@]1(O)CC[C@]2(O)c1ccoc1` (stereo partly drawn) [Comp. I - bw, 3β-((2RS)-2,3-Diaminopropoxy)-17β-(3-furyl)-androst-4-ene-14β,17α-diol] were 3.98 µM and 100 µM.
Taken in the same sequence, the figures for `C[C@]12CC[C@H]3[C@@H](CCC4=C[C@@H](SCCCN)CC[C@@]43C)[C@@]1(O)CC[C@]2(O)c1ccoc1` [Comp. I - by, 3β-(3-Aminopropylthio)-17β-(3-furyl)androst-4-ene-14β,17α-diol] were 1.58 µM and 12.6 µM.
The molecule `C[C@]12CC[C@H](O)C[C@H]1CC[C@@H]1[C@@H]2CC[C@]2(C)[C@@](O)(C3=CC(=O)OC3)CC[C@]12O` [Ref. comp., 3β,14β,17α-trihydroxy-5β-card-20(22)-enolide, reference compound] had an IC50 at Na^+,K^+ -ATPase [1] of 1.26 µM. The molecule also gave an IC50 at Na^+,K^+ -ATPase [2] of 5.01 µM. In experiment [3], the “SBP (systolic blood pressure)” value is given as 174 +/- 2.1 mm Hg and the “HR (heart rate)” value is 340 +/- 10.2 beats/min. The antihypertensive action entry in experiment [4] is “do not show antihypertensive action”.
